Source: paper PMC9433317, “Discovery, structure and mechanism of a tetraether lipid synthase” (Nature, 2022)

Columns and labels:
[1] = biological target: T1, GDGT–MAS (MJ0619; Tes) (Methanocaldococcus jannaschii, UniProt Q58036); experiment: X-ray crystal structures, […] Å and […] Å; format: binding; conditions: with 5'-dAH and bound lipids; bidentate to the unique iron of the radical SAM [Fe4S4] cluster
T1 sequence (Q58036 1-506): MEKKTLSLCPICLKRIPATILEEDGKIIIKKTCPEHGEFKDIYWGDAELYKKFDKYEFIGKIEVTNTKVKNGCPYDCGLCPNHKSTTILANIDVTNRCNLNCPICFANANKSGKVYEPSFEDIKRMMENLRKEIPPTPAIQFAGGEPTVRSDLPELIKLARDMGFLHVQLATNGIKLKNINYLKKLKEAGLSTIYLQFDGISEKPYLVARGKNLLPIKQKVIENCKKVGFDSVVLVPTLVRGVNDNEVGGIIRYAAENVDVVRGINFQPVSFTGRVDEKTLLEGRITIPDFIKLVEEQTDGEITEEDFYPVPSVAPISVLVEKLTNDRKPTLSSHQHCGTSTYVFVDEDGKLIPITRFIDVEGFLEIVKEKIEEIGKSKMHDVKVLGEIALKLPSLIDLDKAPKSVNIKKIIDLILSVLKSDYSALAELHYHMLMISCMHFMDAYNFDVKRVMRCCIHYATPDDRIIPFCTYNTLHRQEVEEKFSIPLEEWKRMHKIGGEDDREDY

[2] = biological target: T1, GDGT–MAS (MJ0619; Tes); experiment: X-ray crystal structure, […] Å; format: binding; conditions: lipid-exchanged from M. acetivorans extract; with 5'-dAH and methionine; lipid identity assigned from electron density; second lipid site

| SMILES | X-ray crystal structures, 1.85 Å and 2.05 Å [1] | X-ray crystal structure, 2.05 Å [2] |
| --- | --- | --- |
| CSCC[C@H](N)C(=O)O [Met, methionine] | methionine coordinates to the unique iron in a bidentate manner | – |
| CC(C)CCC[C@@H](C)CCC[C@@H](C)CCC[C@@H](C)CCOC[C@@H](COP(=O)(O)O)OCC[C@H](C)CCC[C@H](C)CCC[C@H](C)CCCC(C)C [L1P, 2,3-di-O-phytanyl-sn-glycero-1-phosphate] | – | Unmodelled electron density in the active site was assigned as two archaeal lipid molecules |
